PubChem BioAssay (NCI)
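Where inhibition never reached the appropriate level, the endpoint shown equals the highest concentration tested. Otherwise, values were interpolated linearly from a five-concentration, 48-hour dose response in 96-well plates. Definition used: TGI = concentration required for complete inhibition of growth.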

How the values were obtained:
Experiment in all cases: DTP human tumour cell line panel, 48 h
[1] = test system: COLO 205 colon
[2] = test system: DLD-1 colon
[3] = test system: DMS 114 small cell lung
[4] = test system: HOP-62 NSCLC
[5] = test system: KM20L2 colon
[6] = test system: LXFL 529 NSCLC
[7] = test system: M19-MEL melanoma
[8] = test system: NCI-H23 lung
[9] = test system: SF-268 CNS
[10] = test system: SNB-78 CNS
[11] = test system: UACC-62 melanoma
[12] = test system: XF 498 CNS
[13] = test system: DMS 273 small cell lung
[14] = test system: HOP-18 NSCLC
[15] = test system: T-47D breast
[16] = test system: RXF-631 renal

Structure (SMILES)	TGI [1]	TGI [2]	TGI [3]	TGI [4]	TGI [5]	TGI [6]	TGI [7]	TGI [8]	TGI [9]	TGI [10]	TGI [11]	TGI [12]	TGI [13]	TGI [14]	TGI [15]	TGI [16]
CC(=O)OC(CC1(C)C(C)CCC23COC(=O)C2=CCCC31)c1ccoc1 (stereo not given)	> 100 µM	> 100 µM	> 100 µM	85.3 µM	58.7 µM	38.9 µM	> 100 µM	54.5 µM	36.2 µM	70.4 µM	59.9 µM	44.6 µM	–	–	–	–
CCOC(=O)CC1COc2ccc3c(c21)OCO3 (stereo not given)	> 100 µM	> 100 µM	> 100 µM	> 100 µM	> 100 µM	> 100 µM	> 100 µM	> 100 µM	–	> 100 µM	> 100 µM	> 100 µM	> 100 µM	> 100 µM	–	–
O=C(O)/C(Cl)=C(\Cl)C(=O)c1ccccc1	> 100 µM	> 100 µM	> 100 µM	> 100 µM	> 100 µM	> 100 µM	> 100 µM	> 100 µM	> 100 µM	> 100 µM	> 100 µM	> 100 µM	> 100 µM	–	–	–
O=C(Nc1ccc(Cl)cc1C(F)(F)F)C(=O)C1CCCS1(=O)=O (stereo not given)	> 100 µM	> 100 µM	> 100 µM	> 100 µM	> 100 µM	> 100 µM	> 100 µM	> 100 µM	> 100 µM	> 100 µM	> 100 µM	> 100 µM	–	> 100 µM	–	–
COc1cc(C)c(/C=C2/N=C(c3ccccc3)OC2=O)c([N+](=O)[O-])c1OC	> 100 µM	–	–	> 100 µM	–	–	–	> 100 µM	> 100 µM	–	> 100 µM	–	–	–	> 100 µM	–
CC(Oc1ccccc1Cl)C(=O)NN1C(=O)CC(=O)N(c2ccccc2)C1=S (stereo not given)	> 100 µM	–	–	> 100 µM	–	–	–	> 100 µM	> 100 µM	–	> 100 µM	–	–	–	> 100 µM	–
N#CCc1c(-c2ccccc2)n(S(=O)(=O)c2ccccc2)c2ccccc12	> 100 µM	> 100 µM	> 100 µM	> 100 µM	> 100 µM	> 100 µM	> 100 µM	> 100 µM	> 100 µM	–	> 100 µM	> 100 µM	> 100 µM	–	–	–
COC(=O)C1CCC(=S)N1C(=O)OCc1ccccc1 (stereo not given)	> 100 µM	–	–	> 100 µM	–	–	–	> 100 µM	> 100 µM	–	> 100 µM	–	–	–	> 100 µM	–
CC(C)C(=O)N1Cc2cc(Cl)cc(Cl)c2OC(=O)c2ccccc21	> 100 µM	> 100 µM	74 µM	> 100 µM	57.8 µM	34.3 µM	–	> 100 µM	41.5 µM	> 100 µM	42.2 µM	–	> 100 µM	93.1 µM	–	> 100 µM
COc1ccc([N+](=O)[O-])c2c(NCCCN(C)C)ccnc12	7.17 µM	–	–	15.6 µM	–	–	–	6.19 µM	28.9 µM	–	11.4 µM	–	–	–	29 µM	–
